Columns and labels:
Format in all cases: in vivo, human
Yap1 mRNA = Yap1 mRNA levels in SNU449 xenograft tumors, alone and in combination with sorafenib (second Example 30); details: SNU449 xenograft mice, oligonucleotide 50 mg/kg, sorafenib 30 mg/kg orally, tumors collected day 119 post implantation, relative to PBS
Procedure: Modified oligonucleotides described in the studies above were tested in a hepatocellular carcinoma SNU449 xenograft tumor model. In addition to testing the modified oligonucleotide by itself, combination therapy with sorafenib was also tested. A control oligonucleotide 792169, described herein above, was also tested.
(§1) Five million SNU449 cells in 30% matrigel were implanted subcutaneously into the fatpads of female NOD.Cg-Prkdcscid II2rgtmlWjl/SzJ mice (from Jackson Laboratory) at 4-6 weeks of age. 43 days post implantation (when tumors had reached approximately 100 mm^3 in size), groups of eight mice each were administered with 50 mg/kg modified oligonucleotide daily for 10 days (loading dose), following which they were administered with 50 mg/kg modified oligonucleotide four times a week for one week, following which they were dosed with 50 mg/kg modified oligonucleotide thrice weekly until the end of the study. […] Animals were sacrificed, and tumors were collected on day 119 post implantation.
Yap1 mRNA knockdown in tumors was measured by RT-qPCR as previously described using the Human Yap1 primer-probe set RTS4814. Yap1 mRNA levels were normalized to actin-beta content, as measured by primer probe set RTS5002. Results are presented in the tables below as percent control of the amount of Yap1 mRNA relative to PBS treated animals (% control).

ERK1/2 = test: Measurement of ERK activation (pERK/ERK) in SNU449 xenograft model with sorafenib (second Example 30); details: SNU449 xenograft tumors, pERK/ERK relative to PBS control, oligonucleotide 50 mg/kg, sorafenib 30 mg/kg orally
Procedure: Five million SNU449 cells in 30% matrigel were implanted subcutaneously into the fatpads of female NOD.Cg-Prkdcscid II2rgtmlWjl/SzJ mice (from Jackson Laboratory) at 4-6 weeks of age. 43 days post implantation (when tumors had reached approximately 100 mm^3 in size), groups of eight mice each were administered with 50 mg/kg modified oligonucleotide daily for 10 days (loading dose), following which they were administered with 50 mg/kg modified oligonucleotide four times a week for one week, following which they were dosed with 50 mg/kg modified oligonucleotide thrice weekly until the end of the study.
Protein analysis was carried out using standard procedures. […] ERK protein levels were compared to internal control GAPDH. […] The secondary antibody used was donkey anti-rabbit NA934, GE Healthcare. pERK/ERK levels were calculated relative to PBS control to determine % activation of ERK1/2.

SNU449 xenograft tumor = test: Tumor volume in SNU449 xenograft tumor model, alone and in combination with sorafenib (second Example 30); details: SNU449 xenograft, oligonucleotide 50 mg/kg, sorafenib 30 mg/kg orally
Procedure: Modified oligonucleotides described in the studies above were tested in a hepatocellular carcinoma SNU449 xenograft tumor model. […] A control oligonucleotide 792169, described herein above, was also tested.
as §1
Tumor volumes were also measured at the indicated days in the table below.

CNC(=O)c1cc(Oc2ccc(NC(=O)Nc3ccc(Cl)c(C(F)(F)F)c3)cc2)ccn1 [sorafenib]
Yap1 mRNA levels in tumors (Yap1 mRNA): 103 % control
% activation of ERK1/2 (ERK1/2): 142%
Average Tumor Volume (SNU449 xenograft tumor; day 43 post tumor implantation): 112 mm^3
Average Tumor Volume (SNU449 xenograft tumor; day 46 post tumor implantation): 145 mm^3
Average Tumor Volume (SNU449 xenograft tumor; day 50 post tumor implantation): 159 mm^3
Average Tumor Volume (SNU449 xenograft tumor; day 53 post tumor implantation): 173 mm^3
Average Tumor Volume (SNU449 xenograft tumor; day 57 post tumor implantation): 200 mm^3
Average Tumor Volume (SNU449 xenograft tumor; day 67 post tumor implantation): 277 mm^3
Average Tumor Volume (SNU449 xenograft tumor; day 71 post tumor implantation): 249 mm^3
Average Tumor Volume (SNU449 xenograft tumor; day 75 post tumor implantation): 283 mm^3
Average Tumor Volume (SNU449 xenograft tumor; day 78 post tumor implantation): 322 mm^3
Average Tumor Volume (SNU449 xenograft tumor; day 81 post tumor implantation): 391 mm^3
Average Tumor Volume (SNU449 xenograft tumor; day 85 post tumor implantation): 416 mm^3
Average Tumor Volume (SNU449 xenograft tumor; day 88 post tumor implantation): 451 mm^3
Average Tumor Volume (SNU449 xenograft tumor; day 92 post tumor implantation): 508 mm^3
Average Tumor Volume (SNU449 xenograft tumor; day 94 post tumor implantation): 581 mm^3
Average Tumor Volume (SNU449 xenograft tumor; day 98 post tumor implantation): 625 mm^3
Average Tumor Volume (SNU449 xenograft tumor; day 101 post tumor implantation): 685 mm^3
Average Tumor Volume (SNU449 xenograft tumor; day 105 post tumor implantation): 671 mm^3
Average Tumor Volume (SNU449 xenograft tumor; day 108 post tumor implantation): 663 mm^3
Average Tumor Volume (SNU449 xenograft tumor; day 119 post tumor implantation): 747 mm^3

Source: US11214803B2, “Modulators of YAP1 expression” (Ionis Pharmaceuticals, Inc., priority 2019, dated 2022)
